In the experiment the target is T1, recombinant human SK (Homo sapiens, UniProt Q9NYA1).
T1 construct: glutathione-S-transferase (GST) (N); made in house; host or cells: bacteria (pGEX vector)
Briefly: Inhibition of recombinant human SK, LC/MS/MS assay. It counts as biochemical. As to conditions: 6 μg/ml compound. The procedure:
An assay for identifying inhibitors of recombinant human SK has been established (French et al., 2003, Cancer Res 63: 5962). cDNA for human SK was subcloned into a pGEX bacterial expression vector, which results in expression of the enzyme as a fusion protein with glutathione-S-transferase, and the fusion protein is then purified on a column of immobilized glutathione. SK activity is measured by incubation of the recombinant SK with [^3H]sphingosine and 1 mM ATP under defined conditions, followed by extraction of the assay mixture with chloroform:methanol under basic conditions. […] Radioactivity in aliquots of the aqueous phase is then quantified as a measure of [^3H]S1P formation. There is a low background level of partitioning of [^3H]sphingosine into the aqueous phase, and addition of the recombinant SK greatly increases the formation of [^3H]S1P.
In an alternate assay procedure, the recombinant human SK was incubated with unlabeled sphingosine and ATP as described above. After 30 minutes, the reactions were terminated by the addition of acetonitrile to directly extract the newly synthesized S1P. The amount of S1P in the samples is then quantified as follows. C17 base D-erythro-sphingosine and C17 S1P are used as internal standards for sphingosine and S1P, respectively. These seventeen-carbon fatty acid-linked sphingolipids are not naturally produced, making these analogs excellent standards. The lipids are then fractionation by High-Performance Liquid Chromatography using a C8-reverse phase column eluted with 1 mM methanolic ammonium formate/2 mM aqueous ammonium formate. A Finnigan LCQ Classic LC-MS/MS is used in the multiple reaction monitoring positive ionization mode to acquire ions at m/z of 300 (precursor ion)→282 (product ion) for sphingosine and 380→264 for S1P. Calibration curves are generated by plotting the peak area ratios of the synthetic standards for each sphingolipid, and used to determine the normalized amounts of sphingosine and S1P in the samples.
Each Compound of this invention was tested for its ability to inhibit recombinant SK using the LC/MS/MS assay described above. Typically, the Compounds were individually dissolved in dimethylsulfoxide and tested at a final concentration of 6 micrograms/ml.

The source of these data is patent US20100137315A1, “Sphingosine Kinase Inhibitors and Methods of Their Use” (APOGEE BIOTECHNOLOGY CORPORATION, priority 2005, published 2010).

T1 sequence (Q9NYA1 whole entry): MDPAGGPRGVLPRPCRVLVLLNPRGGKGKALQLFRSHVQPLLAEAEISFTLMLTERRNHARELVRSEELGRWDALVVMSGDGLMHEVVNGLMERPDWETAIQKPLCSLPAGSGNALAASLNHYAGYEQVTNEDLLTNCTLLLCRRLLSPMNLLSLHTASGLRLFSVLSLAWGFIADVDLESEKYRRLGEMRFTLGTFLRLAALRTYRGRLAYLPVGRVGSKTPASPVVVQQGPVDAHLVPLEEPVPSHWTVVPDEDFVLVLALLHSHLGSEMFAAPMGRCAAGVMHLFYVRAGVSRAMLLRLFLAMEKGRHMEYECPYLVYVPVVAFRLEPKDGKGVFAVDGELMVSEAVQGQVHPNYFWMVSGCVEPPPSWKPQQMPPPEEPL

The inhibition is the relative decrease from the control value, in per cent. Consider `COc1ccc(CCC(=O)Nc2nc(-c3ccc(Cl)cc3)cs2)cc1OC` [Compound 23, N-[4-(4-Chloro-phenyl)-thiazol-2-yl]-3-(3,4-dimethoxy-phenyl)-propionamide], for which the inhibition at 6 µg/mL amounted to 45%.

`O=C(NCc1ccc(OC(F)(F)F)cc1)c1nc(-c2ccc(Cl)cc2)cs1` [Compound 52, 4-(4-Chloro-phenyl)-thiazole-2-carboxylic Acid 4-trifluoromethoxy-benzylamide]: the inhibition at 6 µg/mL was 78%. Regarding `CCCC(=O)Oc1ccc(CC(=O)Nc2nc(-c3ccc(Cl)cc3)cs2)cc1N` [Compound 31, Butyric acid 2-amino-4-{[4-(4-chloro-phenyl)-thiazol-2-ylcarbamoyl]-methyl}-phenyl ester], the inhibition at 6 µg/mL was determined as 58%. As for `O=C(NCc1ccc(C(F)(F)F)cc1)c1nc(-c2ccc(Cl)cc2)cs1` [Compound 58, 4-(4-Chloro-phenyl)-thiazole-2-carboxylic Acid 4-trifluoromethyl-benzylamide], the inhibition at 6 µg/mL came to 86%. The value for `O=C(NCCN1CCOCC1)c1nc(-c2ccc(Cl)cc2)cs1` [Compound 76, 4-(4-Chloro-phenyl)-thiazole-2-carboxylic acid (2-morpholin-4-yl-ethyl)-amide] was 51%; that for `Fc1cc(F)cc(COCNc2nc(-c3ccc(Cl)cc3)cs2)c1` [Compound 79, [4-(4-Chloro-phenyl)-thiazol-2-yl]-(3,5-difluoro-benzyloxymethyl)-amine] was 53%; that for `Fc1cc(F)cc(OCNc2nc(-c3ccc(Cl)cc3)cs2)c1` [Compound 77, [4-(4-Chloro-phenyl)-thiazol-2-yl]-(3,5-difluoro-phenoxymethyl)-amine] was 85%. For the compound `O=C(NCCc1ccncc1)c1nc(-c2ccc(Cl)cc2)cs1` [Compound 61, 4-(4-Chloro-phenyl)-thiazole-2-carboxylic Acid (2-pyridin-4-yl-ethyl)-amide], the inhibition at 6 µg/mL turned out to be 0%. Under `O=C(NCCCN1CCCC1)c1nc(-c2ccc(Cl)cc2)cs1` [Compound 59, 4-(4-Chloro-phenyl)-thiazole-2-carboxylic Acid (3-pyrrolidin-1-yl-propyl)-amide] stands 46%; under `O=C(C=Cc1ccc2c(c1)OCO2)Nc1nc(-c2ccc(Cl)cc2)cs1` [Compound 21, 3-Benzo[1,3]dioxol-5-yl-N-[4-(4-chloro-phenyl)-thiazol-2-yl]-acrylamide], 26%. The value for `O=C(NCCc1cccc(Oc2ccccc2)c1)c1nc(-c2ccc(Cl)cc2)cs1` [Compound 44, 4-(4-Chloro-phenyl)-thiazole-2-carboxylic acid [2-(3-phenoxy-phenyl)-ethyl]-amide] was 69%. The value for `O=C(Nc1nc(-c2ccc(Cl)cc2)cs1)c1cccc(F)c1` [Compound 65, N-[4-(4-Chloro-phenyl)-thiazol-2-yl]-3-fluoro-benzamide] was 66%. Regarding `O=C(NCc1ccc(-c2ccccc2)cc1)c1nc(-c2ccc(Cl)cc2)cs1` [Compound 55, 4-(4-Chloro-phenyl)-thiazole-2-carboxylic Acid (biphenyl-4-ylmethyl)-amide], the inhibition at 6 µg/mL is 20%. The value for `O=C(NCc1ccc(Oc2ccccc2)cc1)c1nc(-c2ccc(Cl)cc2)cs1` [Compound 54, 4-(4-Chloro-phenyl)-thiazole-2-carboxylic Acid 4-phenoxy-benzylamide] was 25%; that for `O=C(NCc1ccc(F)c(F)c1)c1nc(-c2ccc(Cl)cc2)cs1` [Compound 40, 4-(4-Chloro-phenyl)-thiazole-2-carboxylic acid 3,4-difluoro-benzylamide] was 56%.

As to `CCCC(=O)Oc1ccc(CCC(=O)Nc2nc(-c3ccc(Cl)cc3)cs2)cc1OC(=O)CCC` [Compound 26, Butyric acid 2-butyryloxy-4-{2-[4-(4-chloro-phenyl)-thiazol-2-ylcarbamoyl]-ethyl}-phenyl ester], the inhibition at 6 µg/mL was found to be 0%. Under `COc1ccc(CCNC(=O)c2nc(-c3ccc(Cl)cc3)cs2)cc1Br` [Compound 41, 4-(4-Chloro-phenyl)-thiazole-2-carboxylic acid [2-(3-bromo-4-methoxy-phenyl)-ethyl]-amide] stands 22%.

Consider `O=C(NCc1cc(F)cc(F)c1)c1nc(-c2ccc(Cl)cc2)cs1` [Compound 36, 4-(4-Chloro-phenyl)-thiazole-2-carboxylic acid 3,5-difluoro-benzylamide], for which the inhibition at 6 µg/mL is 14%. Under `CCCC(=O)Oc1ccc(C=CC(=O)Nc2nc(-c3ccc(C)cc3)cs2)cc1OC` [Compound 19, Butyric acid 2-methoxy-4-[2-(4-p-tolyl-thiazol-2-ylcarbamoyl)-vinyl]-phenyl ester] stands 36%; under `O=C(NCc1cc(C(F)(F)F)cc(C(F)(F)F)c1)c1nc(-c2ccc(Cl)cc2)cs1` [Compound 60, 4-(4-Chloro-phenyl)-thiazole-2-carboxylic Acid 3,5-bis-trifluoromethyl-benzylamide], 87%. Turning to `CN1CCN(NC(=O)c2nc(-c3ccc(Cl)cc3)cs2)CC1` [Compound 46, 4-(4-Chloro-phenyl)-thiazole-2-carboxylic Acid (4-methyl-piperazin-1-yl)-amide], the inhibition at 6 µg/mL was 80%. Under `Fc1ccc(F)c(OCNc2nc(-c3ccc(Cl)cc3)cs2)c1` [Compound 78, [4-(4-Chloro-phenyl)-thiazol-2-yl]-(2,5-difluoro-phenoxymethyl)-amine] stands 70%. The value for `O=C(NCc1ccc(F)c(Cl)c1)c1nc(-c2ccc(Cl)cc2)cs1` [Compound 39, 4-(4-Chloro-phenyl)-thiazole-2-carboxylic acid 3-chloro-4-fluoro-benzylamide] was 69%; that for `O=C(NCc1ccc(C(F)(F)F)cc1F)c1nc(-c2ccc(Cl)cc2)cs1` [Compound 49, 4-(4-Chloro-phenyl)-thiazole-2-carboxylic Acid 2-fluoro-4-trifluoromethyl-benzylamide] was 67%. Under `CN1CCCC1CCNC(=O)c1nc(-c2ccc(Cl)cc2)cs1` (centres unmarked) [Compound 45, 4-(4-Chloro-phenyl)-thiazole-2-carboxylic acid [2-(1-methyl-pyrrolidin-2-yl)-ethyl]-amide] stands 42%; under `O=C(Nc1nc(-c2ccc(Cl)cc2)cs1)c1ccc(F)cc1` [Compound 67, N-[4-(4-Chloro-phenyl)-thiazol-2-yl]-4-fluoro-benzamide], 41%. In the case of `O=C(NCc1ccc(Cl)c(C(F)(F)F)c1)c1nc(-c2ccc(Cl)cc2)cs1` [Compound 37, 4-(4-Chloro-phenyl)-thiazole-2-carboxylic acid 4-chloro-3-trifluoromethyl-benzylamide], the inhibition at 6 µg/mL was found to be 23%. Take `O=C(NCc1cc(F)c(F)c(F)c1)c1nc(-c2ccc(Cl)cc2)cs1` [Compound 42, 4-(4-Chloro-phenyl)-thiazole-2-carboxylic acid 3,4,5-trifluoro-benzylamide]: the inhibition at 6 µg/mL came out at 79%. For `O=C(Nc1nc(-c2ccc(Cl)cc2)cs1)C(Cl)c1ccccc1` (centres unmarked) [Compound 69, 2-Chloro-N-[4-(4-chloro-phenyl)-thiazol-2-yl]-2-phenyl-acetamide], the inhibition at 6 µg/mL came out at 55%. For the compound `CCCC(=O)Oc1ccc(C=CC(=O)Nc2nc(-c3ccc(F)cc3)cs2)cc1OC` [Compound 28, Butyric acid 4-{2-[4-(4-fluoro-phenyl)-thiazol-2-ylcarbamoyl]-vinyl}-2-methoxy-phenyl ester], the inhibition at 6 µg/mL amounted to 87%. Under `O=C(NCCc1ccc2c(c1)OCO2)c1nc(-c2ccc(Cl)cc2)cs1` [Compound 64, 4-(4-Chloro-phenyl)-thiazole-2-carboxylic Acid (2-benzo[1,3]dioxol-5-yl-ethyl)-amide] stands 90%; under `O=C(Nc1nc(-c2ccc(Cl)cc2)cs1)c1ccc(Cl)cc1Cl` [Compound 68, 2,4-Dichloro-N-[4-(4-chloro-phenyl)-thiazol-2-yl]-benzamide], 73%; under `CS(=O)(=O)c1ccc(CNC(=O)c2nc(-c3ccc(Cl)cc3)cs2)cc1` [Compound 63, 4-(4-Chloro-phenyl)-thiazole-2-carboxylic Acid 4-methanesulfonyl-benzylamide], 3%. Regarding `CSc1ccc(CNC(=O)c2nc(-c3ccc(Cl)cc3)cs2)cc1` [Compound 51, 4-(4-Chloro-phenyl)-thiazole-2-carboxylic Acid 4-methylsulfanyl-benzylamide], the inhibition at 6 µg/mL was found to be 36%.

With `CCCC(=O)Oc1ccc(C=CC(=O)Nc2nc(-c3ccc(Br)cc3)cs2)cc1OC` [Compound 20, Butyric acid 4-{2-[4-(4-bromo-phenyl)-thiazol-2-ylcarbamoyl]-vinyl}-2-methoxy-phenyl ester], the inhibition at 6 µg/mL worked out at 6%.
